US12486300B2, “Mithramycin oxime derivatives having increased selectivity and anti-cancer activity” (University of Kentucky Research Foundation, priority 2018, dated 2025)

tested on: TC32 Ewing sarcoma cells, expressing EWS-FLI1; assay: Growth inhibition assay, TC32 cells; type: cell-based; conditions: ratio of GI50 PC3 to TC32
Description: Growth inhibition assay to assess cytotoxicity in ETS vs non-ETS expressing cells. Cells were seeded in clear 96-well plates (VWR, Radnor, PA). Seeding densities were optimized for each cell line to support 5 days of linear growth. Following a 24 hours attachment period, cells in duplicate wells were treated with half-log increments of respective compounds (0 nM and 0.3 nM-10 μM). Working stocks were prepared from an initial 10 mM drug stock diluted in either 100% ethanol or dimethyl sulfoxide (DMSO). All wells contained a final concentration of 0.1% (v/v) respective organic solvent. Immediately following treatment, cell viability was measured for vehicle control (Day 0) wells. Cell viability was measured in the remaining wells after 72 hours of incubation with compound or vehicle control (Day 3).
Percent viability, relative to the initial cell seeding concentration, was calculated by ((TreatmentDay3−Vehicle ControlDay0)/(Vehicle ControlDay3−Vehicle ControlDay0))×100. Percent cell viability was plotted as a function of compound concentration (Log [M]) and the data were fit using a 3-parameter non-linear model with fixed Hill slope constant and 4-parameter non-linear model with variable Hill slope constant. The model with the best curve fit was used to estimate the GI50 in GraphPad Prism 7.0 software (GraphPad Software, La Jolla, CA). The 3-parameter equation used was Y=Bottom+(Top−Bottom)/(1+10[…]((X−Log[IC50]))). The 4-parameter equation used was Y=Bottom+(Top−Bottom)/(1+10[…]((Log[IC50]−X)*Hillslope)). Top and Bottom are plateaus in the units of the Y-axis (response). IC50 is the response (Y-axis) halfway between Top and Bottom plateaus.
All compounds were tested at least once in multi-well replicates and each experiment included one a control compound (i.e., MTM) to ensure the stable response of the cell lines. The selectivity index was estimated by determining the ratio of GI50 estimates between ETS fusion negative and ETS fusion positive cell lines.

Structure (SMILES) | PC:TC32 (cellular selectivity)
COC(C(=NOCC(=O)Nc1ccc2ncsc2c1)C(O)C(C)O)C1Cc2cc3cc(OC4CC(OC5CC(O)C(O)C(C)O5)C(O)C(C)O4)c(C)c(O)c3c(O)c2C(=O)C1OC1CC(OC2CC(OC3CC(C)(O)C(O)C(C)O3)C(O)C(C)O2)C(O)C(C)O1 (stereo not shown) [MTM (70)] | 7.2
COC(C(=NOCC(=O)NC(Cc1c[nH]c2ccccc12)C(=O)NCCc1c[nH]c2ccccc12)C(O)C(C)O)C1Cc2cc3cc(OC4CC(OC5CC(O)C(O)C(C)O5)C(O)C(C)O4)c(C)c(O)c3c(O)c2C(=O)C1OC1CC(OC2CC(OC3CC(C)(O)C(O)C(C)O3)C(O)C(C)O2)C(O)C(C)O1 (stereo not shown) [MTM (43)] | 2.6
COC(C(=NO)C(O)C(C)O)C1Cc2cc3cc(OC4CC(OC5CC(O)C(O)C(C)O5)C(O)C(C)O4)c(C)c(O)c3c(O)c2C(=O)C1OC1CC(OC2CC(OC3CC(C)(O)C(O)C(C)O3)C(O)C(C)O2)C(O)C(C)O1 (stereo not shown) [MTM (3)] | 1.86
COC(C(=NOC(C)(C)C)C(O)C(C)O)C1Cc2cc3cc(OC4CC(OC5CC(O)C(O)C(C)O5)C(O)C(C)O4)c(C)c(O)c3c(O)c2C(=O)C1OC1CC(OC2CC(OC3CC(C)(O)C(O)C(C)O3)C(O)C(C)O2)C(O)C(C)O1 (stereo not shown) [MTM (15Z)] | 2.25
COC(=O)C(Cc1ccccc1)NC(=O)C(Cc1c[nH]c2ccccc12)NC(=O)CON=C(C(O)C(C)O)C(OC)C1Cc2cc3cc(OC4CC(OC5CC(O)C(O)C(C)O5)C(O)C(C)O4)c(C)c(O)c3c(O)c2C(=O)C1OC1CC(OC2CC(OC3CC(C)(O)C(O)C(C)O3)C(O)C(C)O2)C(O)C(C)O1 (stereo not shown) [MTM (51)] | 2.2
C=CCON=C(C(O)C(C)O)C(OC)C1Cc2cc3cc(OC4CC(OC5CC(O)C(O)C(C)O5)C(O)C(C)O4)c(C)c(O)c3c(O)c2C(=O)C1OC1CC(OC2CC(OC3CC(C)(O)C(O)C(C)O3)C(O)C(C)O2)C(O)C(C)O1 (stereo not shown) [MTM (10)] | 1.10
COC(C(=NOCC(=O)NCCc1c[nH]c2ccccc12)C(O)C(C)O)C1Cc2cc3cc(OC4CC(OC5CC(O)C(O)C(C)O5)C(O)C(C)O4)c(C)c(O)c3c(O)c2C(=O)C1OC1CC(OC2CC(OC3CC(C)(O)C(O)C(C)O3)C(O)C(C)O2)C(O)C(C)O1 (stereo not shown) [MTM (18)] | 6.44
COC(C(=NOC[Si](C)(C)C)C(O)C(C)O)C1Cc2cc3cc(OC4CC(OC5CC(O)C(O)C(C)O5)C(O)C(C)O4)c(C)c(O)c3c(O)c2C(=O)C1OC1CC(OC2CC(OC3CC(C)(O)C(O)C(C)O3)C(O)C(C)O2)C(O)C(C)O1 (stereo not shown) [MTM (5E)] | 1.28
COC(C(=NOCCNC(=O)c1ccc([N+](=O)[O-])c(OCC(C)C)c1)C(O)C(C)O)C1Cc2cc3cc(OC4CC(OC5CC(O)C(O)C(C)O5)C(O)C(C)O4)c(C)c(O)c3c(O)c2C(=O)C1OC1CC(OC2CC(OC3CC(C)(O)C(O)C(C)O3)C(O)C(C)O2)C(O)C(C)O1 (stereo not shown) [MTM (63)] | 13.3
COC(C(=NOCC(=O)Nc1ccc2scnc2c1)C(O)C(C)O)C1Cc2cc3cc(OC4CC(OC5CC(O)C(O)C(C)O5)C(O)C(C)O4)c(C)c(O)c3c(O)c2C(=O)C1OC1CC(OC2CC(OC3CC(C)(O)C(O)C(C)O3)C(O)C(C)O2)C(O)C(C)O1 (stereo not shown) [MTM (69)] | 11.4
CON=C(C(O)C(C)O)C(OC)C1Cc2cc3cc(OC4CC(OC5CC(O)C(O)C(C)O5)C(O)C(C)O4)c(C)c(O)c3c(O)c2C(=O)C1OC1CC(OC2CC(OC3CC(C)(O)C(O)C(C)O3)C(O)C(C)O2)C(O)C(C)O1 (stereo not shown) [MTM (1)] | 1.66
COC(C(=NOCC(=O)NC(Cc1c[nH]c2ccccc12)C(=O)NC(C)CO)C(O)C(C)O)C1Cc2cc3cc(OC4CC(OC5CC(O)C(O)C(C)O5)C(O)C(C)O4)c(C)c(O)c3c(O)c2C(=O)C1OC1CC(OC2CC(OC3CC(C)(O)C(O)C(C)O3)C(O)C(C)O2)C(O)C(C)O1 (stereo not shown) [MTM (55)] | 2.7
COC(C(=NOCC(=O)NC(Cc1c[nH]c2ccccc12)C(=O)O)C(O)C(C)O)C1Cc2cc3cc(OC4CC(OC5CC(O)C(O)C(C)O5)C(O)C(C)O4)c(C)c(O)c3c(O)c2C(=O)C1OC1CC(OC2CC(OC3CC(C)(O)C(O)C(C)O3)C(O)C(C)O2)C(O)C(C)O1 (stereo not shown) [MTM (39)] | 7.4
COC(C(=NOCC(=O)NCc1ccc2cc[nH]c2c1)C(O)C(C)O)C1Cc2cc3cc(OC4CC(OC5CC(O)C(O)C(C)O5)C(O)C(C)O4)c(C)c(O)c3c(O)c2C(=O)C1OC1CC(OC2CC(OC3CC(C)(O)C(O)C(C)O3)C(O)C(C)O2)C(O)C(C)O1 (stereo not shown) [MTM (64)] | 12.3
COC(=O)C(Cc1cn(C)c2ccccc12)NC(=O)CON=C(C(O)C(C)O)C(OC)C1Cc2cc3cc(OC4CC(OC5CC(O)C(O)C(C)O5)C(O)C(C)O4)c(C)c(O)c3c(O)c2C(=O)C1OC1CC(OC2CC(OC3CC(C)(O)C(O)C(C)O3)C(O)C(C)O2)C(O)C(C)O1 (stereo not shown) [MTM (26)] | 5.64
COC(C(=NOCC(=O)Nc1ccc2cc[nH]c2c1)C(O)C(C)O)C1Cc2cc3cc(OC4CC(OC5CC(O)C(O)C(C)O5)C(O)C(C)O4)c(C)c(O)c3c(O)c2C(=O)C1OC1CC(OC2CC(OC3CC(C)(O)C(O)C(C)O3)C(O)C(C)O2)C(O)C(C)O1 (stereo not shown) [MTM (66)] | 4.2
COC(=O)C(Cc1ccccc1)NC(=O)CON=C(C(O)C(C)O)C(OC)C1Cc2cc3cc(OC4CC(OC5CC(O)C(O)C(C)O5)C(O)C(C)O4)c(C)c(O)c3c(O)c2C(=O)C1OC1CC(OC2CC(OC3CC(C)(O)C(O)C(C)O3)C(O)C(C)O2)C(O)C(C)O1 (stereo not shown) [MTM (30)] | 2.08
COC(C(=NOCC(=O)Nc1cncnc1)C(O)C(C)O)C1Cc2cc3cc(OC4CC(OC5CC(O)C(O)C(C)O5)C(O)C(C)O4)c(C)c(O)c3c(O)c2C(=O)C1OC1CC(OC2CC(OC3CC(C)(O)C(O)C(C)O3)C(O)C(C)O2)C(O)C(C)O1 (stereo not shown) [MTM (50)] | 2.7
COC(=O)C(Cc1c[nH]c2ccccc12)NC(=O)C(Cc1ccccc1)NC(=O)CON=C(C(O)C(C)O)C(OC)C1Cc2cc3cc(OC4CC(OC5CC(O)C(O)C(C)O5)C(O)C(C)O4)c(C)c(O)c3c(O)c2C(=O)C1OC1CC(OC2CC(OC3CC(C)(O)C(O)C(C)O3)C(O)C(C)O2)C(O)C(C)O1 (stereo not shown) [MTM (23)] | 7.31
COC(C(=NOCCCc1c[nH]c2ccccc12)C(O)C(C)O)C1Cc2cc3cc(OC4CC(OC5CC(O)C(O)C(C)O5)C(O)C(C)O4)c(C)c(O)c3c(O)c2C(=O)C1OC1CC(OC2CC(OC3CC(C)(O)C(O)C(C)O3)C(O)C(C)O2)C(O)C(C)O1 (stereo not shown) [MTM (21)] | 1.38
COC(C(=NOCC(=O)Nc1ccncc1)C(O)C(C)O)C1Cc2cc3cc(OC4CC(OC5CC(O)C(O)C(C)O5)C(O)C(C)O4)c(C)c(O)c3c(O)c2C(=O)C1OC1CC(OC2CC(OC3CC(C)(O)C(O)C(C)O3)C(O)C(C)O2)C(O)C(C)O1 (stereo not shown) [MTM (45)] | 2.4
COC(C(=NOCc1ccccc1)C(O)C(C)O)C1Cc2cc3cc(OC4CC(OC5CC(O)C(O)C(C)O5)C(O)C(C)O4)c(C)c(O)c3c(O)c2C(=O)C1OC1CC(OC2CC(OC3CC(C)(O)C(O)C(C)O3)C(O)C(C)O2)C(O)C(C)O1 (stereo not shown) [MTM (2)] | 1.08
COC(C(=NOCC(=O)Nc1ccc2[nH]c(C)cc2c1)C(O)C(C)O)C1Cc2cc3cc(OC4CC(OC5CC(O)C(O)C(C)O5)C(O)C(C)O4)c(C)c(O)c3c(O)c2C(=O)C1OC1CC(OC2CC(OC3CC(C)(O)C(O)C(C)O3)C(O)C(C)O2)C(O)C(C)O1 (stereo not shown) [MTM (72)] | 20.9
COC(C(=NOCCc1c[nH]c2ccccc12)C(O)C(C)O)C1Cc2cc3cc(OC4CC(OC5CC(O)C(O)C(C)O5)C(O)C(C)O4)c(C)c(O)c3c(O)c2C(=O)C1OC1CC(OC2CC(OC3CC(C)(O)C(O)C(C)O3)C(O)C(C)O2)C(O)C(C)O1 (stereo not shown) [MTM (19)] | 1.70
COC(C(=NOCC(=O)Nc1ccc2ncccc2c1)C(O)C(C)O)C1Cc2cc3cc(OC4CC(OC5CC(O)C(O)C(C)O5)C(O)C(C)O4)c(C)c(O)c3c(O)c2C(=O)C1OC1CC(OC2CC(OC3CC(C)(O)C(O)C(C)O3)C(O)C(C)O2)C(O)C(C)O1 (stereo not shown) [MTM (74)] | 66.6
COC(=O)C(C)NC(=O)C(Cc1c[nH]c2ccccc12)NC(=O)CON=C(C(O)C(C)O)C(OC)C1Cc2cc3cc(OC4CC(OC5CC(O)C(O)C(C)O5)C(O)C(C)O4)c(C)c(O)c3c(O)c2C(=O)C1OC1CC(OC2CC(OC3CC(C)(O)C(O)C(C)O3)C(O)C(C)O2)C(O)C(C)O1 (stereo not shown) [MTM (52)] | 6.6
COC(C(=NOCC(=O)Nc1cccnc1)C(O)C(C)O)C1Cc2cc3cc(OC4CC(OC5CC(O)C(O)C(C)O5)C(O)C(C)O4)c(C)c(O)c3c(O)c2C(=O)C1OC1CC(OC2CC(OC3CC(C)(O)C(O)C(C)O3)C(O)C(C)O2)C(O)C(C)O1 (stereo not shown) [MTM (49)] | 2.4
COC(C(=NOCC(=O)NC(Cc1c[nH]c2ccccc12)C(=O)NC(Cc1c[nH]c2ccccc12)c1nc(C)no1)C(O)C(C)O)C1Cc2cc3cc(OC4CC(OC5CC(O)C(O)C(C)O5)C(O)C(C)O4)c(C)c(O)c3c(O)c2C(=O)C1OC1CC(OC2CC(OC3CC(C)(O)C(O)C(C)O3)C(O)C(C)O2)C(O)C(C)O1 (stereo not shown) [MTM (58)] | 2.4
